The values below come from ChEMBL document CHEMBL4038288, “Novel quinoxalinyl chalcone hybrid scaffolds as enoyl ACP reductase inhibitors: Synthesis, molecular docking and biological evaluation” (Bioorg Med Chem Lett, 2017).

The test system of one experiment is Staphylococcus aureus. Kind of experiment: Antimicrobial activity against Staphylococcus aureus after 18 to 24 hrs by agar well-diffusion method. Type of experiment: functional.
Experiment [1] has as its target T1, Enoyl-[acyl-carrier-protein] reductase [NADH] (Mycobacterium tuberculosis) (UniProt P9WGR1).
T1 sequence (whole entry): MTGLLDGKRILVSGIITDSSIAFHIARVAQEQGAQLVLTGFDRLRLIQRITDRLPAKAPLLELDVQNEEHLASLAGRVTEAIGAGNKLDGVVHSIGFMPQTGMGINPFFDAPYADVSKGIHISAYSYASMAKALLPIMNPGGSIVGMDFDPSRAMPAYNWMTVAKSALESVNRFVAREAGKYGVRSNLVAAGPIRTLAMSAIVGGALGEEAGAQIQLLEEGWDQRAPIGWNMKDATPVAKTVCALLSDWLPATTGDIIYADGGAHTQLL
Kind of experiment: Inhibition of Mycobacterium tuberculosis H37Rv enoyl ACP reductase assessed as reduction in bacterial growth after 5 days by microplate alamar blue assay. Background: The colour change of resazurin is a common sign of viable cells or microbes.

In experiment [2] the test system is MCF7. Kind of experiment: Cytotoxicity against human MCF7 cells assessed as cell lysis at 30 ug/ml after 48 hrs by MTT assay. It is filed as functional. Background: Tetrazolium dyes change colour on reduction, which living cells bring about.
Another experiment concerns Escherichia coli. Kind of experiment: Antimicrobial activity against Escherichia coli after 18 to 24 hrs by agar well-diffusion method. It is filed as functional. On the technique in general: Agar diffusion results depend on both activity and mobility in agar.
The test system of the next experiment is Candida albicans. As to the kind of experiment: Antimicrobial activity against Candida albicans after 18 to 24 hrs by agar well-diffusion method. Type of experiment: functional.
Experiment [3] deals with MCF7. As to the kind of experiment: Cytotoxicity against human MCF7 cells assessed as cell lysis at 10 ug/ml after 48 hrs by MTT assay. It is filed as functional, cell-based.
The test system of experiment [4] is MCF7. As to the kind of experiment: Anticancer activity against human MCF7 cells after 48 hrs by MTT assay. It is filed as functional, cell-based.
In experiment [5] the test system is MCF7. As to the kind of experiment: Cytotoxicity against human MCF7 cells assessed as cell lysis at 50 ug/ml after 48 hrs by MTT assay. It is filed as functional.
Experiment [6] deals with MCF7. As to the kind of experiment: Cytotoxicity against human MCF7 cells assessed as cell lysis at 40 ug/ml after 48 hrs by MTT assay. It is filed as functional.
The test system of experiment [7] is MCF7. As to the kind of experiment: Cytotoxicity against human MCF7 cells assessed as cell lysis at 20 ug/ml after 48 hrs by MTT assay. It is filed as functional, cell-based.
The subject of experiment [8] is MCF7. As to the kind of experiment: Cytotoxicity against human MCF7 cells assessed as cell lysis after 48 hrs by MTT assay. Type of experiment: functional.

In brackets after ≈: the same amount, converted by molar mass. Activity calls are given as the source filed them. The rule behind the calls is not given here.

For `O=C(O)c1cn(C2CC2)c2cc(N3CCNCC3)c(F)cc2c1=O` [CIPROFLOXACIN], the MIC against Staphylococcus aureus stood at 2 mg/L (≈ 6.04 µM); in experiment [1], 3.12 mg/L (≈ 9.42 µM).
Consider `O=C(/C=C/c1cnc2ccccc2n1)c1ccc(F)cc1`, for which the result in the experiment with MCF7 [2], with MCF7 [3], with MCF7 [5], in the experiment with MCF7 [6] and in the experiment with MCF7 [7] was inactive. Moreover, the MIC worked out at 75 mg/L (≈ 270 µM) with Staphylococcus aureus, 25 mg/L (≈ 89.8 µM) in experiment [1], 25 mg/L (≈ 89.8 µM) against Escherichia coli and 25 mg/L (≈ 89.8 µM) with Candida albicans. This compound displayed an IC50 with MCF7 [4] of 50 mg/L (≈ 180 µM).
Consider `O=C(/C=C/c1cnc2ccccc2n1)c1ccncc1`, for which the MIC came to 50 mg/L (≈ 191 µM) in the experiment with Staphylococcus aureus, 6.25 mg/L (≈ 23.9 µM) in experiment [1], 25 mg/L (≈ 95.7 µM) with Escherichia coli and 50 mg/L (≈ 191 µM) against Candida albicans.
With `COc1ccc(C(=O)/C=C/c2cnc3ccccc3n2)cc1`, the MIC is 50 mg/L (≈ 172 µM) against Staphylococcus aureus, 25 mg/L (≈ 86.1 µM) in experiment [1], 25 mg/L (≈ 86.1 µM) in the experiment on Escherichia coli and 25 mg/L (≈ 86.1 µM) against Candida albicans.
In turn, `OC(Cn1cncn1)(Cn1cncn1)c1ccc(F)cc1F` [FLUCONAZOLE] displayed an MIC in the experiment on Candida albicans of 16 mg/L (≈ 52.2 µM).
With `NC(=O)c1cnccn1`, the MIC in experiment [1] came to 3.12 mg/L (≈ 25.3 µM).
Turning to `Nc1ccc(C(=O)/C=C/c2cnc3ccccc3n2)cc1`, the Activity in the experiment on MCF7 [2], with MCF7 [5] and in the experiment with MCF7 [6] was 50% in each case. Moreover, the MIC against Staphylococcus aureus worked out at 50 mg/L (≈ 182 µM); in [1], 25 mg/L (≈ 90.8 µM); in the experiment on Escherichia coli it was 25 mg/L (≈ 90.8 µM); with Candida albicans it was 25 mg/L (≈ 90.8 µM). In addition, the outcome with MCF7 [3] and with MCF7 [7] was Active. The IC50 with MCF7 [4] was found to be 25 mg/L (≈ 90.8 µM).
In the case of `CN[C@@H]1[C@H](O[C@H]2[C@H](O[C@H]3[C@H](O)[C@@H](O)[C@H](N=C(N)N)[C@@H](O)[C@@H]3N=C(N)N)O[C@@H](C)[C@]2(O)C=O)O[C@@H](CO)[C@H](O)[C@H]1O`, in experiment [1], the MIC turned out to be 6.25 mg/L (≈ 10.7 µM).
`O=C(/C=C/c1cnc2ccccc2n1)c1ccc([N+](=O)[O-])cc1`: the MIC in the experiment on Staphylococcus aureus is 50 mg/L (≈ 164 µM); in [1], 25 mg/L (≈ 81.9 µM); against Escherichia coli it was 25 mg/L (≈ 81.9 µM); with Candida albicans, 50 mg/L (≈ 164 µM).
Take `O=C(/C=C/c1cnc2ccccc2n1)c1ccc2ccccc2c1`: the MIC (in the experiment with Staphylococcus aureus; in experiment [1]; with Escherichia coli; in the experiment with Candida albicans) was 25 mg/L (≈ 80.6 µM) each time.
Regarding `O=C(/C=C/c1cnc2ccccc2n1)c1cccc(O)c1`, the MIC with Staphylococcus aureus was found to be 10 mg/L (≈ 36.2 µM); in experiment [1], 3.12 mg/L (≈ 11.3 µM); in the experiment with Escherichia coli, 5 mg/L (≈ 18.1 µM); with Candida albicans, 10 mg/L (≈ 36.2 µM).
Take `O=C(/C=C/c1cnc2ccccc2n1)c1cccc([N+](=O)[O-])c1`: the MIC in the experiment on Staphylococcus aureus turned out to be 50 mg/L (≈ 164 µM); in experiment [1], 25 mg/L (≈ 81.9 µM); against Escherichia coli, 25 mg/L (≈ 81.9 µM); in the experiment on Candida albicans, 25 mg/L (≈ 81.9 µM).
As for `Nc1cccc(C(=O)/C=C/c2cnc3ccccc3n2)c1`, the MIC with Staphylococcus aureus was found to be 50 mg/L (≈ 182 µM); in experiment [1], 25 mg/L (≈ 90.8 µM); in the experiment on Escherichia coli, 25 mg/L (≈ 90.8 µM); with Candida albicans, 25 mg/L (≈ 90.8 µM).
As for `O=C(/C=C/c1cnc2ccccc2n1)c1ccccc1`, the MIC came out at 50 mg/L (≈ 192 µM) in the experiment with Staphylococcus aureus, 25 mg/L (≈ 96 µM) in experiment [1], 50 mg/L (≈ 192 µM) in the experiment on Escherichia coli and 25 mg/L (≈ 96 µM) with Candida albicans.
As for `O=C(/C=C/c1cnc2ccccc2n1)c1ccc(O)cc1`, the result in the experiment with MCF7 [2], with MCF7 [3], in the experiment with MCF7 [5], in the experiment on MCF7 [6] and with MCF7 [7] was inactive. Also, the MIC in the experiment on Staphylococcus aureus was 5 mg/L (≈ 18.1 µM); in [1], 3.12 mg/L (≈ 11.3 µM); against Escherichia coli it was 5 mg/L (≈ 18.1 µM).
Take `O=C(/C=C/c1cnc2ccccc2n1)c1ccc(Br)cc1`: the MIC against Staphylococcus aureus stood at 75 mg/L (≈ 221 µM); in [1] it was 50 mg/L (≈ 147 µM); in the experiment on Escherichia coli, 25 mg/L (≈ 73.7 µM); in the experiment with Candida albicans it was 75 mg/L (≈ 221 µM).
`O=C(/C=C/c1cnc2ccccc2n1)c1ccc(Cl)cc1`: the MIC with Staphylococcus aureus came to 25 mg/L (≈ 84.8 µM); in experiment [1] it was 25 mg/L (≈ 84.8 µM); against Escherichia coli, 10 mg/L (≈ 33.9 µM); in the experiment with Candida albicans, 25 mg/L (≈ 84.8 µM).
Regarding `O=C(/C=C/c1cnc2ccccc2n1)c1cccc(Br)c1`, the MIC against Staphylococcus aureus was 25 mg/L (≈ 73.7 µM); in experiment [1] it was 25 mg/L (≈ 73.7 µM); against Escherichia coli, 5 mg/L (≈ 14.7 µM); against Candida albicans, 25 mg/L (≈ 73.7 µM).
In turn, `COc1cccc2c1C(=O)c1c(O)c3c(c(O)c1C2=O)C[C@@](O)(C(=O)CO)C[C@@H]3O[C@H]1C[C@H](N)[C@H](O)[C@H](C)O1` [DOXORUBICIN] showed an IC50 in the experiment with MCF7 [4] of 5 to 7.5 µg. The Activity with MCF7 [8] turned out to be 50%.
